From US20200093852A1, “Methods of Treating Ocular Disorders” (priority 2016, published 2020)
Structures can show the parent of a compound that is named as a salt.

Each compound was assayed against T1, Recombinant human active heparanase (Homo sapiens, UniProt Q9Y251) (assay: Heparanase enzyme inhibition assay (fondaparinux substrate, WST-1 detection)). Conditions: IC50 heparanase inhibition by compounds of Formula 1, Table 3.
T1 construct: Recombinant human active heparanase derived from Chinese hamster ovary cells; purchased R&D Systems; host or cells: Chinese hamster ovary cells
T1 sequence (Q9Y251 158-543 limits assumed): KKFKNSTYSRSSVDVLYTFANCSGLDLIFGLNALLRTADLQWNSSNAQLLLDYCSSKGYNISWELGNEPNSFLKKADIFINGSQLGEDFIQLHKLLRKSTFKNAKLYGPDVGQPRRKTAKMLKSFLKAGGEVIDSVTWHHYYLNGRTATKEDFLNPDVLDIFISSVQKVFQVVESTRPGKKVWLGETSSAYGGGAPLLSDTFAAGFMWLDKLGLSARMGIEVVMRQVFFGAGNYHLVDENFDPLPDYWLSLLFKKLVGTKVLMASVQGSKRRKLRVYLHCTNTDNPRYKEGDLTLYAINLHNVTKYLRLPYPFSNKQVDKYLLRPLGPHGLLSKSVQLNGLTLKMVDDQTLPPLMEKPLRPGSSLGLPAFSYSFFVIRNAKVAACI
T1 sequence (Q9Y251 36-109 limits assumed): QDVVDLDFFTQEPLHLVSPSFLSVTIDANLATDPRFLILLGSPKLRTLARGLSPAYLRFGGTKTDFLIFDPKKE
Type: biochemical
Procedure: Recombinant human active heparanase derived from Chinese hamster ovary cells was from R&D Systems. […] The plates were washed three times with PBST, shaken dry, and stored for up to two weeks at 4° C. before use. […] Following initiation of the reaction by addition of fondaparinux, the plate was sealed with adhesive film and incubated at 37° C. for 20-24 h.
Test compounds were dissolved and added to the assay at varying concentrations to calculate the level of inhibition.

SMILES | IC50 [µM]
COc1cc2nc(-c3cccc4cccnc34)nc(NCCc3ccccc3)c2cc1OC [BT-2164] | 6.1

Same assay, conditions: IC50 heparanase inhibition by compounds of Formula 2-4, Table 4

SMILES | IC50 [µM]
CCOC(=O)CSc1nc2cc(OC)c(OC)cc2c(=N)n1CCNC(=O)c1cc2ccccc2[nH]1 [BT-2136] | 26.8

Same assay, conditions: Table 3; read-out: IC50 heparanase inhibition by compounds of Formula 1

IC50 [µM] | SMILES
41 | COc1cc2nc(-c3ccc4[nH]ccc4c3)nc(NCCc3c[nH]c4ccccc34)c2cc1OC [BT-2005]
92.7 | COc1cc2nc(-c3cncc4ccccc34)nc(NCCc3c[nH]c4ccccc34)c2cc1OC [BT-2007]
57.5 | COc1cc2nc(N3CCN(C(=O)C4COc5ccccc5O4)CC3)nc(N)c2cc1OC (stereo not shown) [BT-2013, doxazosin mesylate, reference compound]
56 | COc1cc2nc(-c3ccc4ccccc4c3)nc(NCCc3c[nH]c4ccccc34)c2cc1OC [BT-2057]
1 | COc1cc2nc(-c3cccc4cccnc34)nc(NCCc3c[nH]c4ccccc34)c2cc1OC [BT-2062]
53.6 | COc1cc2nc(-c3ccccc3CN3CCOCC3)nc(NCCc3c[nH]c4ccccc34)c2cc1OC [BT-2090]
0.7 | COc1cc2nc(-c3cccc4cccnc34)nc(NC3CN(C(=O)c4cc5ccccc5[nH]4)C3)c2cc1OC [BT-2120]
20.5 | COC(=O)c1ccc2c(S(=O)(=O)NC3CN(c4nc(N)c5cc(OC)c(OC)cc5n4)C3)c[nH]c2c1 [BT-2148]
18.9 | COc1cc2nc(NCCNC(=O)c3cc(-c4ccccc4)on3)nc(N)c2cc1OC [BT-2161]
33 | COc1cc2nc(N3CC(NC(=O)c4nnc(-c5ccccc5)o4)C3)nc(N)c2cc1OC [BT-2167]
3.3 | COc1cc2nc(NCCNC(=O)c3nnc(-c4cc5ccccc5[nH]4)o3)nc(N)c2cc1OC [BT-2169]
55 | COc1cc2nc(NCCNC(=O)c3nnc(-c4ccccc4)o3)nc(NCCc3ccccc3)c2cc1OC [BT-2170]
14 | COc1cc2nc(-c3ccc4c(c3)OCCO4)nc(NCCc3c[nH]c4ccccc34)c2cc1OC [BT-2171]
4.3 | COc1cc2nc(NCCNC(=O)c3nnc(-c4cc5ccccc5[nH]4)o3)nc(N)c2cc1OC [BT-2173]
21 | COc1cc2nc(NCCNC(=O)c3nnc(-c4c[nH]c5ncccc45)o3)nc(N)c2cc1OC [BT-2177]
11 | COc1cc2nc(-c3cccc4cccnc34)nc(NCCc3ccccn3)c2cc1OC [BT-2178]
18 | COc1cc2nc(NCCc3ccccn3)nc(NCCc3c[nH]c4ccccc34)c2cc1OC [BT-2179]
11 | COc1cc2nc(-c3cccc4cccnc34)nc(NCCNC(=N)N)c2cc1OC [BT-2181]
18 | COc1cc2nc(NCCNC(=N)N)nc(NCCc3c[nH]c4ccccc34)c2cc1OC [BT-2182]
22 | COc1cc2nc(NCCNC(=O)c3nnc(-c4cccc(F)c4)o3)nc(N)c2cc1OC [BT-2185]
4.1 | COc1cc2nc(-c3cccc4cccnc34)nc(NCCNC(=O)c3nnc(-c4ccccc4)o3)c2cc1OC [BT-2187]
13.4 | COc1cc2nc(NCCNC(=O)c3nnc(-c4ccccc4)s3)nc(N)c2cc1OC [BT-2229]

SMILES | IC50 [µM]
COc1cc2nc(-c3cccc4cccnc34)nc(NCCNS(=O)(=O)c3ccccc3)c2cc1OC [BT-2184] | 3.39

Same assay, conditions: Table 4; read-out: IC50 heparanase inhibition by compounds of Formula 2-4

IC50 [µM] | SMILES
9 | COc1cc2[nH]c(=S)n(CCNC(=O)c3cc4ccccc4[nH]3)c(=N)c2cc1OC [BT-2058]
4.2 | COc1ccc(-c2ccc3[nH]c(C(=O)NCCn4c(=S)[nH]c5cc(OC)c(OC)cc5c4=N)cc3c2)cn1 [BT-2066]
2.8 | COc1cc2[nH]c(=S)n(CCNC(=O)c3cc4cc(-c5ccc(C(=O)N6CCN(C)CC6)cc5)ccc4[nH]3)c(=N)c2cc1OC [BT-2068]
1 | COc1cc2[nH]c(=S)n(CCNC(=O)c3cc4cc(-c5cccnc5)ccc4[nH]3)c(=N)c2cc1OC [BT-2070]
7 | COc1cc2[nH]c(=S)n(CCNC(=O)c3c[nH]c4ccccc34)c(=N)c2cc1OC [BT-2071]
3.1 | COc1cc2[nH]c(=S)n(CCNC(=O)c3cc4ccc(-c5cccnc5)cc4[nH]3)c(=N)c2cc1OC [BT-2072]
37 | COc1cc2[nH]c(=S)n(CCNC(=O)c3n[nH]c4ccccc34)c(=N)c2cc1OC [BT-2100]
10.7 | COc1cc2[nH]c(=S)n(CCNC(=O)c3c[nH]c4c(O)cccc34)c(=N)c2cc1OC [BT-2103]
31.7 | COc1cc2[nH]c(=S)n(CCNC(=O)c3cc(-c4ccccc4)on3)c(=N)c2cc1OC [BT-2133]
24.9 | COc1cc2nc(SC)n(CCNC(=O)c3cc4ccccc4[nH]3)c(=N)c2cc1OC [BT-2134]
28 | COc1cc2nc(SCc3cccc(C(F)(F)F)c3)n(CCNC(=O)c3cc4ccc(-c5cccnc5)cc4[nH]3)c(=N)c2cc1OC [BT-2137]
5.9 | COc1cc2nc(SCc3ccc(C(F)(F)F)cc3)n(CCNC(=O)c3cc4ccc(-c5cccnc5)cc4[nH]3)c(=N)c2cc1OC [BT-2138]
2.89 | COc1cc2nc(SCc3ccc(C(F)(F)F)cc3)n(CCNC(=O)c3cc4cc(-c5cccnc5)ccc4[nH]3)c(=N)c2cc1OC [BT-2152]
5.7 | COc1cc2nc(SCc3ccc(OC(F)(F)F)cc3)n(CCNC(=O)c3cc4cc(-c5cccnc5)ccc4[nH]3)c(=N)c2cc1OC [BT-2153]

SMILES | IC50 [µM]
COc1cc2[nH]c(=S)n(CCNC(=O)c3ccc(-c4ccccc4)[nH]3)c(=N)c2cc1OC [BT-2113] | 10.6
